Experimental findings from patent publication US20090253669A1, “Substituted Sulfonamide Compounds” (GRUENENTHAL GmbH, priority 2008, published 2009) are described below.

As a reminder, the inhibition is the drop in the measured response relative to a control, in per cent.

Experiment [1] concerns the target T1, human B1R receptor (hB1R) (Homo sapiens, UniProt P46663).
T1 construct: host or cells: CHO K1 cells
T1 sequence (P46663 1-353): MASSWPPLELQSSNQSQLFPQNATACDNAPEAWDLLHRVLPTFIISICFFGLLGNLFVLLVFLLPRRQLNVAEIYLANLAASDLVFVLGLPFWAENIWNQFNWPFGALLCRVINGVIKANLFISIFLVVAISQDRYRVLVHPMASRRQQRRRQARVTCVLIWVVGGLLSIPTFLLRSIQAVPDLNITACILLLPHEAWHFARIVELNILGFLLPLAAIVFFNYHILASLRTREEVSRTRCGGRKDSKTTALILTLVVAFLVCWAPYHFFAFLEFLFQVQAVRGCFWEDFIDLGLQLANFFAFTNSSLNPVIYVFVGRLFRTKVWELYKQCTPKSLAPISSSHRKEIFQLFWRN
The experiment is described as follows: FLIPR Ca2+ assay on hB1R-transfected CHO K1 cells, antagonistic action. Type of experiment: cell-based.

The target of experiment [2] is T2, B1R receptor of the rat (rB1R) (Rattus norvegicus, UniProt P97583).
T2 construct: host or cells: CHO K1 cells
T2 sequence (P97583 1-337): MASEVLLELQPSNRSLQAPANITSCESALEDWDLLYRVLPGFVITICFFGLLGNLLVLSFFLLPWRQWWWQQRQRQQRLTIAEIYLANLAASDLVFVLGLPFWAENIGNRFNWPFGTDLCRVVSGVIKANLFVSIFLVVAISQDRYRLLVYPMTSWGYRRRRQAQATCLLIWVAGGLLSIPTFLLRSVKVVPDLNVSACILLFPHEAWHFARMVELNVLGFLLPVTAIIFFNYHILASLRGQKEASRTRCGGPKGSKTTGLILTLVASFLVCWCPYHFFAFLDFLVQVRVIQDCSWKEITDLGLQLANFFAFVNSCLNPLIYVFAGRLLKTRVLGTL
The experiment is described as follows: FLIPR Ca2+ assay on rB1R-transfected CHO K1 cells, antagonistic action. Type of experiment: cell-based.

The mark [3] stands for this setting: CHO-K1, 10 μM test substance, agonist Lys-Des-Arg9-bradykinin 0.5 nM, % of maximum achievable inhibition, read-out: hB1R [10 μM] % inhibition.
Setting [4] is: CHO-K1, 10 μM test substance, agonist Des-Arg9-bradykinin 100 nM, % of maximum achievable inhibition, read-out: rB1R [10 μM] % inhibition.

Molecules are shown by their SMILES. Where two headings read alike, the source gives them in different places.

Regarding `COc1cc(C)c(S(=O)(=O)N2CCC(OCC(=O)NC3CCC(Cc4ccccc4C)(N(C)C)CC3)C2)c(C)c1` (stereo not drawn) [Compound 14, N-(4-(dimethylamino)-4-(2-methylbenzyl)cyclohexyl)-2-(1-(4-methoxy-2,6-dimethylphenylsulfonyl)pyrrolidin-3-yloxy)acetamide], the results for the inhibition at 10 µM in experiment [1] (setting [3]) and in experiment [2] (setting [4]) were 89% and 82%, respectively.
Consider `COc1cc(C)c(S(=O)(=O)N(C)CCOCC(=O)NC2CCC(c3ccccc3)(N3CCCCC3)CC2)c(C)c1` (stereo not drawn) [Compound 11, 2-(2-(4-methoxy-N,2,6-trimethylphenylsulfonamido)ethoxy)-N-(4-phenyl-4-(piperidin-1-yl)cyclohexyl)acetamide], for which the inhibition at 10 µM in experiment [1] (setting [3]) turned out to be 100%; in experiment [2] (setting [4]), 90%.
Regarding `Cc1cc(S(=O)(=O)N2CCCCC2CCC(=O)N(C)CC2CCC(CCc3ccccc3)(N3CCCC3)CC2)c(C)cc1Cl` (stereo not drawn) [Compound 141, 3-(1-(4-chloro-2,5-dimethylphenylsulfonyl)piperidin-2-yl)-N-methyl-N-((4-phenethyl-4-(pyrrolidin-1-yl)cyclohexyl)methyl)propanamide], the inhibition at 10 µM came out at 104% in experiment [1] (setting [3]) and 20% in experiment [2] (setting [4]).
Consider `O=C(CC(NS(=O)(=O)c1ccc2ccccc2c1)c1ccccc1)N1CCC(c2ccccc2)(N2CCN(c3ccncc3)CC2)CC1` (stereo not drawn) [Compound 98, N-(3-oxo-1-phenyl-3-(4-phenyl-4-(4-(pyridin-4-yl)piperazin-1-yl)piperidin-1-yl)propyl)naphthalene-2-sulfonamide], for which the inhibition at 10 µM in experiment [1] (setting [3]) came out at 72%; in experiment [2] (setting [4]), 91%.
Regarding `Cc1cc(S(=O)(=O)N2CCCCC2CCC(=O)N2CCC(c3ccccc3)(N3CCN(c4ccncc4)CC3)CC2)c(C)cc1Cl` (stereo not drawn) [Compound 99, 3-(1-(4-chloro-2,5-dimethylphenylsulfonyl)piperidin-2-yl)-1-(4-phenyl-4-(4-(pyridin-4-yl)piperazin-1-yl)piperidin-1-yl)propan-1-one], the inhibition at 10 µM in experiment [1] (setting [3]) was 100%; in experiment [2] (setting [4]), 90%.
`CN(C)C1(Cc2ccccc2)CCN(C(=O)CC2CCCCN2S(=O)(=O)c2cccc(C(F)(F)F)c2)CC1` (stereo not drawn) [Compound 97, 1-(4-benzyl-4-(dimethylamino)piperidin-1-yl)-2-(1-(3-(trifluoromethyl)phenylsulfonyl)piperidin-2-yl)ethanone]: the inhibition at 10 µM in experiment [1] (setting [3]) stood at 102%; in experiment [2] (setting [4]), 91%.
The like results for `CN(CC1CCC(CCc2ccccc2)(N2CCCC2)CC1)C(=O)CC(NS(=O)(=O)c1ccc2ccccc2c1)c1ccccc1` (stereo not drawn) [Compound 89, N-methyl-3-(naphthalene-2-sulfonamido)-N-((4-phenethyl-4-(pyrrolidin-1-yl)cyclohexyl)methyl)-3-phenylpropanamide] were, in that order, 92% and 98%.
In the same order, the values of `COc1cc(C)c(S(=O)(=O)N(C)CCOCC(=O)N2CCC(CCc3ccccc3)(N(C)C)CC2)c(C)c1` [Compound 48, N-(2-(2-(4-(dimethylamino)-4-phenethylpiperidin-1-yl)-2-oxoethoxy)ethyl)-4-methoxy-N,2,6-trimethylbenzenesulfonamide] are 102% and 100%.
The like results for `COc1cc(C)c(S(=O)(=O)N(C)CCOCC(=O)NCC2CCC(c3ccccc3)(N3CCOCC3)CC2)c(C)c1` (stereo not drawn) [Compound 185, 2-(2-(4-methoxy-N,2,6-trimethylphenylsulfonamido)ethoxy)-N-((4-morpholino-4-phenylcyclohexyl)methyl)acetamide] were, in that order, 93% and 65%.
As to `CN1CCN(C2(c3cccc(F)c3)CCN(C(=O)CCCC3CCCCN3S(=O)(=O)c3ccccc3C(F)(F)F)CC2)CC1` (stereo not drawn) [Compound 213, 1-(4-(3-Fluorophenyl)-4-(4-methylpiperazin-1-yl)piperidin-1-yl)-4-(1-(2-(trifluoromethyl)phenylsulfonyl)piperidin-2-yl)butan-1-one], the inhibition at 10 µM in experiment [1] (CHO-K1, read-out: hB1R [10 μM] % inhibition) is 100%; in experiment [2] (CHO-K1, read-out: rB1R [10 μM] % inhibition), 100%.
For `COc1cc(C)c(S(=O)(=O)N(C)CCOCC(=O)NC2CCC(Cc3ccc(F)cc3)(N(C)C)CC2)c(C)c1` (stereo not drawn) [Compound 9, N-(4-(dimethylamino)-4-(4-fluorobenzyl)cyclohexyl)-2-(2-(4-methoxy-N,2,6-trimethylphenylsulfonamido)ethoxy)acetamide], the inhibition at 10 µM stood at 104% in experiment [1] (setting [3]) and 95% in experiment [2] (setting [4]).
As to `COc1cc(C)c(S(=O)(=O)N2CCCCC2COCC(=O)N(C)CCCC2CCC(c3cccc(F)c3)(N3CCCC3)CC2)c(C)c1` (stereo not drawn) [Compound 204, N-(3-(4-(3-fluorophenyl)-4-(pyrrolidin-1-yl)cyclohexyl)propyl)-2-((1-(4-methoxy-2,6-dimethylphenylsulfonyl)piperidin-2-yl)methoxy)-N-methylacetamide], the figures for the inhibition at 10 µM in experiment [1] (setting [3]) and in experiment [2] (setting [4]) were 99% and 103%, respectively.
Consider `O=C(COC1CCCN(S(=O)(=O)c2c(Cl)cc(Cl)cc2Cl)C1)NC1CCC(c2ccccc2)(N2CCCC2)CC1` (stereo not drawn) [Compound 194, N-(4-phenyl-4-(pyrrolidin-1-yl)cyclohexyl)-2-(1-(2,4,6-trichlorophenylsulfonyl)piperidin-3-yloxy)acetamide], for which the inhibition at 10 µM in experiment [1] (setting [3]) is 96%; in experiment [2] (setting [4]), 33%.
The like results for `COc1cc(C)c(S(=O)(=O)N2CCCCC2COCC(=O)NCC2CCC(c3ccccc3)(N3CCOCC3)CC2)c(C)c1` (stereo not drawn) [Compound 157, 2-((1-(4-methoxy-2,6-dimethylphenylsulfonyl)piperidin-2-yl)methoxy)-N-((4-morpholino-4-phenylcyclohexyl)methyl)acetamide] were, in that order, 76% and 99%.
In the same order, the values of `COc1cc(C)c(S(=O)(=O)N(C)CCOCC(=O)N(C)CCC2CCC(CCc3ccccc3)(N3CCCC3)CC2)c(C)c1` (stereo not drawn) [Compound 58, 2-(2-(4-methoxy-N,2,6-trimethylphenylsulfonamido)ethoxy)-N-methyl-N-(2-(4-phenethyl-4-(pyrrolidin-1-yl)cyclohexyl)ethyl)acetamide] are 103% and 100%.
In the same order, the values of `Cc1cc(S(=O)(=O)N2CCCCC2CCC(=O)N(C)CCC2CCC(Cc3ccccc3)(N3CCCC3)CC2)c(C)cc1Cl` (stereo not drawn) [Compound 117, N-(2-(4-benzyl-4-(pyrrolidin-1-yl)cyclohexyl)ethyl)-3-(1-(4-chloro-2,5-dimethylphenylsulfonyl)piperidin-2-yl)-N-methylpropanamide] are 103% and 70%.
In the case of `COc1cc(C)c(S(=O)(=O)N2CCC(OCC(=O)NC3CCC(c4ccccc4)(N4CCCC4)CC3)C2)c(C)c1` (stereo not drawn) [Compound 153, 2-(1-(4-methoxy-2,6-dimethylphenylsulfonyl)pyrrolidin-3-yloxy)-N-(4-phenyl-4-(pyrrolidin-1-yl)cyclohexyl)acetamide], the inhibition at 10 µM in experiment [1] (setting [3]) was found to be 97%; in experiment [2] (setting [4]), 102%.
In the same order, the values of `O=C(COCC1CCc2ccccc2N1S(=O)(=O)c1ccc(Cl)c(Cl)c1)N1CCC(c2ccccc2)(N2CCN(c3ccncc3)CC2)CC1` (stereo not drawn) [Compound 100, 2-((1-(3,4-dichlorophenylsulfonyl)-1,2,3,4-tetrahydroquinolin-2-yl)methoxy)-1-(4-phenyl-4-(4-(pyridin-4-yl)piperazin-1-yl)piperidin-1-yl)ethanone] are 51% and 88%.
In the same order, the values of `CN1CCN(C2(CCc3ccccc3)CCN(C(=O)COCC3CCc4ccccc4N3S(=O)(=O)c3ccc(Cl)c(Cl)c3)CC2)CC1` (stereo not drawn) [Compound 116, 2-((1-(3,4-dichlorophenylsulfonyl)-1,2,3,4-tetrahydroquinolin-2-yl)methoxy)-1-(4-(4-methylpiperazin-1-yl)-4-phenethylpiperidin-1-yl)ethanone] are 57% and 71%.
Regarding `O=C(COCC1CCCN(S(=O)(=O)c2c(Cl)cc(Cl)cc2Cl)C1)NC1CCC(c2ccccc2)(N2CCCC2)CC1` (stereo not drawn) [Compound 192, N-(4-phenyl-4-(pyrrolidin-1-yl)cyclohexyl)-2-((1-(2,4,6-trichlorophenylsulfonyl)piperidin-3-yl)methoxy)acetamide], the inhibition at 10 µM was 99% in experiment [1] (setting [3]) and 50% in experiment [2] (setting [4]).
As to `CN(CCCC1CCC(CCc2ccccc2)(N2CCCC2)CC1)C(=O)CC(NS(=O)(=O)c1ccc2ccccc2c1)c1ccccc1` (stereo not drawn) [Compound 79, N-methyl-3-(naphthalene-2-sulfonamido)-N-(3-(4-phenethyl-4-(pyrrolidin-1-yl)cyclohexyl)propyl)-3-phenylpropanamide], the values for the inhibition at 10 µM in experiment [1] (setting [3]) and in experiment [2] (setting [4]) were 102% and 99%, respectively.
